Assay results as given in patent US11260029B2, “Fish feed compositions containing a neonicotinoid for preventing and treating parasite infections” (priority 2014, dated 2022).
Several values for one entry are separate records, joined by “and”; a condition that tells them apart may be missing. Identical values can stand only once.

Legend:
[1] = Tolerance of fish at five times the 20 mg/kg total dosage (mortalities, histology); assay type: in vivo, salmon
salmon lice = conditions: 100 ppm bath; in one hour; U.S. Pat. No. 5,504,081; cited from earlier work
[2] = system: Lepeophtheirus pre-adult lice; experiment: Feed trials: removal of pre-adult sea lice from fish fed medicated feed; assay type: in vivo; conditions: for Lice removed by 11 days after last day of treatment / Lice removed by 3 days after last day of treatment: Feed Trial Number One; for Lice removed by 2 days after last day of treatment / Lice removed by 9 days after last day of treatment: Feed Trial Number Two
Procedure: Empyreal™ 75, a processed corn protein concentrate, was mixed with imidacloprid to form a pre-mix. This pre-mix was then added to salmon feeds using fish oil to help coat it onto the pellets to prepare the medicated feed.
Medicated feed for fish was prepared based on the amount of feed that the fish were consuming each day to give a total dosage to different tanks of fish of 10, 20, 40, 60 and 100 milligrams of active ingredient (imidacloprid) over a 5 day period. Experiments were run using total dosages given over 5 days of feeding. A 5 day period was used to provide efficacy, convenience and safety.
Individual fish weights ranged from 62 to 188 grams.
Sea lice have a number of developmental stages on salmon of which two are pre-adults that do a lot of damage to the fish (e.g. Lepeophtheirus pre-adult I, Lepeophtheirus pre-adult II, Caligus pre-adult I, Caligus pre-adult II). Compositions were tested on the two pre-adult stages of Lepeophtheirus. The disclosed compositions are also useful for killing sea lice in the adult male and adult female and adult gravid female stage and the juvenile chalimus stages.

L. salmonis = conditions: in-feed 1, 5 or 10 mg/kg/day for 7 days; WO 2014/064184; cited from earlier work
[3] = 8 mg/kg fish per day, total 40 mg/kg
[4] = 12 mg/kg fish per day, total 60 mg/kg
[5] = 2 mg/kg fish per day, total 10 mg/kg

Compound | abnormalities on histological examination of organs ([1]; 100 mg/kg total dosage) | mortalities ([1]; 100 mg/kg total dosage (five times the 20 mg/kg total dosage)) | lice killed (salmon lice) | Lepeophtheirus lice removed ([2]; 4 mg per kilogram per day for five days, three days into the five-day treatment) | Lice removed by 11 days after last day of treatment ([2]; 4 mg/kg fish per day, total 20 mg/kg, 16 days after treatment had started) | Lice removed by 11 days after last day of treatment ([2]; 4 mg/kg fish per day, total 20 mg/kg, 16 days after treatment had started, listed as imidacloprid) | Lice removed by 3 days after last day of treatment ([2]; 4 mg/kg fish per day, total 20 mg/kg, eight days after the treatment had started) | Lice removed by 3 days after last day of treatment ([2]; 4 mg/kg fish per day, total 20 mg/kg, eight days after the treatment had started, listed as imidacloprid) | Lice removed by 3 days after last day of treatment [2, 3] | Lice removed by 11 days after last day of treatment [2, 3] | Lice removed by 3 days after last day of treatment [2, 4] | Lice removed by 11 days after last day of treatment [2, 4] | Lice removed by 2 days after last day of treatment [2, 5] | Lice removed by 9 days after last day of treatment [2, 5] | Lice removed by 9 days after last day of treatment ([2]; 2 mg/kg fish per day, total 10 mg/kg, listed as imidacloprid) | Lice removed by 2 days after last day of treatment ([2]; 20 mg/kg fish per day, total 100 mg/kg) | removal of lice ([2]; higher dosages trialed, 40, 60 and 100 milligrams total) | sea lice elimination (L. salmonis)
O=[N+]([O-])NC1=NCCN1Cc1ccc(Cl)nc1 [Imidacloprid, (2E)-1-((6-chloropyridin-3-yl)methyl)-N-nitroimidazolidin-2-imine] | no abnormalities detectable | no mortalities | 100% | 13.6% | 100% | 100% | 96.70% and 96.75% | 96.75% | 97.84% | 97.84%^ | 100% | 100% | 64.28% | 77.67% | 77.7% | 88.37% | very effective removal of lice | 
CN/C(=N\[N+](=O)[O-])NCc1cnc(Cl)s1 [clothianidin] |  |  |  |  |  |  |  |  |  |  |  |  |  |  |  |  |  | full sea lice elimination
